Data on one molecule can be found in article PMC8100298, “Histone deacetylase inhibitor resminostat in combination with sorafenib counteracts platelet-mediated pro-tumoral effects in hepatocellular carcinoma” (Scientific Reports, 2021).

Where two headings read alike, the source gives them in different places.

Common to all, as to type: cell-based
One test relates to PLC/PRF/5 HCC cells. Briefly: Intracellular flow cytometry (AcLys, H3K27Ac). To be noted: 1 µM or 3 µM, 24 hours (Fig. S1B). On the procedure:
Supplemental Figures and Figure legends
Figure S1. Inhibition of cancer cell growth by the broad-spectrum HDACI resminostat
A. Inhibition of HDAC1 to 11 by resminostat determined by in vitro HDAC activity assays.
IC50 data from three independent experiments are shown as mean ± SD.
B. Intracellular flow cytometry using antibodies targeting acetyl lysine (AcLys) and the H3K27
acetylation mark (H3K27Ac). IgG isotype controls were used for each antibody. PLC/PRF/5
HCC cells were treated with vehicle control ( 0.1 % DMSO), 1 µM or 3 µM resminostat for 24
hours. For AcLys, the geometric mean fluore scence intensities (gMFI) are shown. For
H3K27Ac, the ratios of the gMFIs for H3K27Ac relative to Histone H3 are shown. D ata of
three technical replicates are presented as mean ± SD.
(1 picture or pasted object on this page, not shown here)
(100×, 78440; Thermo Scientific, Massachusetts, US). Following incubation for 1 h at 4°C,
The protein concentration of the
Fisher Scientific, Massachusetts, US ). Equal amounts of protein lysates and a pre-stained
US) and transferred to PVDF membranes. The membranes were probed using the relevant […]
secondary fluorescence labelled antibodies for 45 min in the dark at RT, washed twice in […]
cells were measured using the Miltenyi MACSQuant Analyser 10 (Miltenyi) and analysed with […]
counted in a Neubauer chamber before the required number of platelets was activated by […]
Background: Flow cytometry measures light scatter and fluorescence of single cells or particles in a stream.

The test system of another test is IGROV1. Briefly: Efficacy screening assay. The following applies: IGROV1, ovary. On the procedure: (§1) The experiment was performed by Oncolead GmbH & Co. KG (Karlsfeld , Germany), based on a standardized screening procedure . Cell lines were purchased directly from the ATCC, NCI and DSMZ cell line c ollections. Cells used for the study had undergone less than 20 passages. To ensure the absence of potential contamination and wrong assignment, all cell lines were tested using a whole genome assay (Agilent, USA). All cell lines were grown as recommended by the suppliers and with addition of 100 U/mL penicillin G and 100 µg/mL; streptomycin. Cell growth and treatments were performed in Nunclon D 96 -well plates (NUNC, Germany). The optimal seeding density for each cell line was determined to ensure exponential growth for the duration of the experiment. All cells growing without anti-cancer agents were sub-conﬂuent by the end of the treatment, as determined by visual inspection.
(§2) After an initial 24 h pre-growth period, the compounds were added. The vehicle concentration […]
(§3) was 0.1% DMSO. After incubation at 37°C for 72 h, the culture medium was aspirated, and the cells were precipitated by the addition of 10% trichloroacetic acid (Sigma-Aldrich, Missouri, US). After overnight incubation at 4°C, the plates were washed three times with deionized water. The precipitates were then stained with SRB (0.4% wt/v sulforhodamine B solution in 1% acetic acid, Sigma-Aldrich, Missouri, US). Afterwards, the plates were washed six times with 1% acetic acid to remove unbound stain. After drying the plates at room temperature, the bound SRB was solubilized with 10 mM Tris base and the optical density was measured at 520 nm using a Victor2 plate reader (Perkin Elmer, Germany). Blank OD values were subtracted from mean OD values for each concentration. The nonlinear curve ﬁtting and EC50 calculations were per formed using XLﬁt and algorithm “205” (ID Business […]
(§4) Multiplicity adjusted p-values with 95% confidence interval was applied. For the invasion assays in Figure 4, one-way ANOVA with multiple comparison testing (Tukey) was performed. Multiplicity adjusted p-values with 95% confidence interval was applied. The adjusted p-values comparing vehicle control without vs. with platelets and compound

In a further test the test system is IMR90. Nature of the test: Efficacy screening assay. To be noted: Homo sapiens, IMR-90, IMR90, lung, 72 h. As for the experimental part: as §1, §2, §3, §4
Another test relates to J82. Briefly: Efficacy screening assay. The following applies: J82, bladder. As for the experimental part: as §1, §2, §3, §4
A further test deals with LOVO. Nature of the test: Efficacy screening assay. The following applies: 72 h, colon. On the procedure: as §1, §2, §3, §4
In the next test the test system is MDAMB231. Nature of the test: Efficacy screening assay. The following applies: MDAMB231, breast. On the procedure: as §1, §2, §3, §4
The next test deals with MDAMB435. Nature of the test: Efficacy screening assay. The following applies: MDAMB435, skin. As for the experimental part: as §1, §2, §3, §4

As for `CN(C)Cc1ccc(S(=O)(=O)n2ccc(/C=C/C(=O)NO)c2)cc1` [resminostat, Resminostat], the “acetylation of histone mark H3K27” value in the test on PLC/PRF/5 HCC cells is “hyperacetylation”. Moreover, the “global acetylation level (AcLys)” value in the test with PLC/PRF/5 HCC cells is given as “increase of the global acetylation level in HCC cells in a dose-dependent manner”. Also, the EC50 (usually the concentration needed to bring the measured effect to its halfway point) in the test with IGROV1 (Homo sapiens, IGROV-1, 72 h, log of EC50, negative, read-out: log(EC50) (converted)) is 1.91 µM; with IGROV1 (Homo sapiens, IGROV-1, 72 h, read-out: EC50) it was 1.88 µM; in the test with IGROV1 (72 h, read-out: EC50), 1.88 µM; with IMR90 (log of EC50, negative, read-out: log(EC50) (converted)), 11 µM; in the test on IMR90 (read-out: EC50) it was 10.9 µM; in the test with J82 (Homo sapiens, J82, 72 h, log of EC50, negative, read-out: log(EC50) (converted)) it was 5.62 µM. The EC50 in the test on J82 (Homo sapiens, J82, 72 h, read-out: EC50) is 5.68 µM; in the test with J82 (72 h, read-out: EC50) it was 5.68 µM; in the test with LOVO (Homo sapiens, LoVo, log of EC50, negative, read-out: log(EC50) (converted)) it was 1.05 µM; in the test with LOVO (Homo sapiens, LoVo, read-out: EC50), 1.05 µM; with LOVO (read-out: EC50), 1.05 µM; in the test with MDAMB231 (Homo sapiens, MDA-MB-231, 72 h, log of EC50, negative, read-out: log(EC50) (converted)), 2.34 µM. For the same molecule, the EC50 in the test on MDAMB231 (Homo sapiens, MDA-MB-231, 72 h, read-out: EC50) was 2.36 µM; in the test with MDAMB231 (72 h, read-out: EC50), 2.36 µM; in the test with MDAMB435 (Homo sapiens, MDA-MB-435, 72 h, log of EC50, negative, read-out: log(EC50) (converted)), 2.09 µM; with MDAMB435 (Homo sapiens, MDA-MB-435, 72 h, read-out: EC50), 2.11 µM; in the test with MDAMB435 (72 h, read-out: EC50), 2.11 µM.
